Experimental data reported in patent US20200345725A1, “Methods and Compositions for Treating Cancer” (Omeros Corporation, priority 2019, published 2020).
Several values for one entry are separate records, joined by “and”; a condition that tells them apart may be missing. Identical values can stand only once. Entries after “also recorded” stand apart in the source; their conditions may differ. Marks after values point to notes of the source that are not given here.

Columns and labels:
GPR174 = GPR174 (Homo sapiens, UniProt Q9BXC1); test: CRE-Luc reporter Gs signaling assay with GPR174; format: cell-based; design: host or cells: HEK293 or CHO cell lines (ATCC); conditions: pCRE-Luc reporter; for EC50: multiple values = separate experiments
Chain of GPR174 (Q9BXC1 whole entry): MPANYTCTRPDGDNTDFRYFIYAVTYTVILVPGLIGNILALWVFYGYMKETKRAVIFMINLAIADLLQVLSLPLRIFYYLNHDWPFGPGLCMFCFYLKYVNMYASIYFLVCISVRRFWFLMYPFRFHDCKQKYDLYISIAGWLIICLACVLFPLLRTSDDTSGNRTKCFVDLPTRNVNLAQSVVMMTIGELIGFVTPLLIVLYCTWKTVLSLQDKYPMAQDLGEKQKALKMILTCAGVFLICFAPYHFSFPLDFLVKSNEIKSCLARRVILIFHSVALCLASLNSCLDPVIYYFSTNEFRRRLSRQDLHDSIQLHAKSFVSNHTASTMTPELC

human PBMCs = test: Th1 cytokines in supernatants of stimulated human PBMC, GPR174 inhibitor with adenosine pathway inhibitors (Examples 15, 18-22); format: cell-based; conditions: for IFN-γ, ratio relative to vehicle control (Veh column) / IL-2, ratio relative to vehicle control (Veh column) / TNF, ratio relative to vehicle control (Veh column): Cmpd 10 1, ZM 0.1, PBF 0.1, SCH 0.2 μM, ADA 0.75 μg/mL; for IFN-γ, ratio relative to vehicle control (MRS) / IL-2, ratio relative to vehicle control (MRS column) / TNF, ratio relative to vehicle control (MRS column): MRS-1754 1 μM added to the agent(s) of the label, label MRS = MRS alone
Method: Human PBMCs, obtained from a human volunteer donor, were dispensed at density of 1×10^6 cells/well in a 96-well flat-bottom plate and were stimulated in triplicate with 1 μg/mL anti-CD3 antibody (UCHT1) and 0.1 μg/mL anti-CD28 antibody (CD28.2) in the presence of:
Supernatants from these cells were collected at 24 hours post-stimulation and the levels of IFN-γ were determined by ELISA assay. Statistical analysis was carried out using one-way ANOVA with Tukey's post-hoc multiple comparison's correction.
Human PBMCs, obtained from a human volunteer donor (donor 1), were dispensed in X-vivo15 media (Lonza) supplemented with Glutamax, penicillin and streptomycin, at density of 1×10^6 cells/well in a 96-well flat-bottom plate and were stimulated with 1 μg/mL anti-CD3 antibody (UCHT1) and 0.1 μg/mL anti-CD28 antibody (CD28.2) in the presence of:
Supernatants from these cells were collected at 24 hours post-stimulation and the levels of IFN-γ, IL-2 and TNF were determined by ELISA assays.
Human PBMCs, obtained from two individual human volunteer donors (donor 2 and donor 3), were dispensed at density of 1×10^6 cells/well in a 96-well flat-bottom plate and were stimulated with 1 μg/mL anti-CD3 antibody (UCHT1) and 0.1 μg/mL anti-CD28 antibody (CD28.2) in the presence of:
Human PBMCs, obtained from twelve individual human volunteer donors were dispensed at density of 1×10^6 cells/well in a 96-well flat-bottom plate and were stimulated in triplicate with 1 μg/mL anti-CD3 antibody (UCHT1) and 0.1 μg/mL anti-CD28 antibody (CD28.2) in the presence of:
A total of 44 experiments using PBMC from 12 healthy donors were tested (9 donors for GM-CSF), with each donor tested in 1 to 8 separate experiments, depending on the donor (1 to 4 experiments each for GM-CSF). […] Cytokines were detected in supernatants with the Legendplex (Biolegend) or the MSB (MesoScale) platforms. […] One-way ANOVA with Tukey's post-hoc multiple comparisons correction was performed to identify significant differences (FC, mean fold change; ****, p<0.0001, ***, p<0.001; **, p<0.01; *, p<0.05, ns, not significant).
Human PBMC (1×10^6 cells/well in a 96-well flat-bottom plate) obtained from donor 3 and donor 6 were stimulated with 1 μg/mL anti-CD3 antibody (UCHT1) and 0.1 μg/mL anti-CD28 antibody (CD28.2) in the presence of:
Supernatants from these cells were collected at 24 hours post-stimulation and the levels of IFN-γ, IL-2, and TNF were determined with the MSD platform (MesoScale Discovery).
Human PBMC (1×10^6 cells/well in a 96-well flat-bottom plate) obtained from donor 7 were stimulated with 1 μg/mL […] (UCHT1) and 0.1 μg/mL anti-CD28 antibody (CD28.2) in the presence of:
Supernatants from these cells were collected at 24 hours post-stimulation and the levels of IFN-γ, IL-2, TNF and GM-CSF were determined with the MSD platform (MesoScale Discovery).
Supernatants from these cells were collected at 24 hours post-stimulation and the levels of IFN-γ, IL-2 and TNF were determined with the MSD platform (MesoScale Discovery).

Fold decrease in Gs signaling activity (GPR174) | EC50 (GPR174) | Molecule | also measured
3.1 fold | 0.5 µM | CCCCCCOc1ccc(C2C3=C(CCCC3=O)NC3=C2C(=O)c2ccccc23)cc1 (stereo not drawn) [compound 52] | 
7.1 fold | 1 µM | O=C1CCCC2=C1C(c1ccc(Oc3ccccc3)cc1)C1=C(N2)c2ccccc2C1=O (stereo not drawn) [compound 47] | 
7 fold | 0.6 µM | CCOc1ccc(C2C3=C(CCCC3=O)NC3=C2C(=O)c2ccccc23)cn1 (stereo not drawn) [compound 55] | 
7.8 fold | 3 µM | O=C1CCCC2=C1C(c1ccc(Cl)cc1)C1=C(N2)c2ccccc2C1=O (stereo not drawn) [compound 39] | 
8.1 fold | 1.2 µM | O=C1CCCC2=C1C(c1ccc(OC(F)F)cc1)C1=C(N2)c2ccccc2C1=O (stereo not drawn) [compound 46] | 
13.7 fold | 1 µM | CCCOc1ccc(C2C3=C(CCCC3=O)NC3=C2C(=O)c2ccccc23)cc1 (stereo not drawn) [compound 41] | 
7 fold | 2 µM | CCc1ccc(C2C3=C(CCCC3=O)NC3=C2C(=O)c2ccccc23)cn1 (stereo not drawn) [compound 54] | 
14.3 fold | 0.6 µM | CC(C)Oc1ccc(C2C3=C(CCCC3=O)NC3=C2C(=O)c2ccccc23)cc1 (stereo not drawn) [compound 49] | 
5.1 fold | 5.2 µM | O=C1CCCC2=C1C(c1ccc(N3CCCC3=O)cc1)C1=C(N2)c2ccccc2C1=O (stereo not drawn) [compound 43] | 
7.6 fold | 1 µM | O=C1CCCC2=C1C(c1ccc(OC3CCCC3)cc1)C1=C(N2)c2ccccc2C1=O (stereo not drawn) [compound 45] | 
4.7 fold | 1.3 µM | CC(C)(C)Oc1ccc(C2C3=C(CCCC3=O)NC3=C2C(=O)c2ccccc23)cc1 (stereo not drawn) [compound 44] | 
8.6 fold | 2.7 µM | O=C1CCCC2=C1C(c1ccc([N+](=O)[O-])cc1)C1=C(N2)c2ccccc2C1=O (stereo not drawn) [compound 38] | 
3.4 fold | 1.8 µM | O=[N+]([O-])c1cc(F)c(N2CCCCCC2)cc1N1CCN(S(=O)(=O)c2ccccc2)CC1 [compound 53] | 
10.1 fold | 1.2 µM | C=CCOc1ccc(C2C3=C(CCCC3=O)NC3=C2C(=O)c2ccccc23)cc1 (stereo not drawn) [compound 50] | 
8.8 fold | 3.3 µM | CS(=O)(=O)c1ccc(C2C3=C(CCCC3=O)NC3=C2C(=O)c2ccccc23)cc1 (stereo not drawn) [compound 40] | 
5 fold | 1.2 µM | O=C1CCCC2=C1C(c1ccc(OC(F)(F)F)cc1)C1=C(N2)c2ccccc2C1=O (stereo not drawn) [compound 48] | 
1.7 fold | 1.6 µM | CCOc1cccc(C2C3=C(CCCC3=O)NC3=C2C(=O)c2ccccc23)c1 (stereo not drawn) [compound 51] | 

More lines, now with the values behind:

Molecule | Fold decrease in Gs signaling activity (GPR174) | EC50 (GPR174) | also measured
CCc1ccc(C2C3=C(CCCC3=O)NC3=C2C(=O)c2ccccc23)cc1 (stereo not drawn) [compound 27] | 6.2 fold | 0.8 µM and 0.5 µM | 
O=C1CCCC2=C1C(c1ccc(-c3ccccc3)cc1)C1=C(N2)c2ccccc2C1=O (stereo not drawn) [compound 32] | 3.9 fold | 2.5 µM | 
O=C1CCCC2=C1C(c1cccc(O)c1)C1=C(N2)c2ccccc2C1=O (stereo not drawn) [compound 24] | 2.8 fold | 4.4 µM | 
O=C1CCCC2=C1C(c1ccccc1)C1=C(N2)c2ccccc2C1=O (stereo not drawn) [compound 25] | 4.2 fold | 4.6 µM | 
COc1cc(C2C3=C(CCCC3=O)NC3=C2C(=O)c2ccccc23)ccc1O (stereo not drawn) [compound 26] | 1.7 fold | 3.6 µM | 
CCOc1ccc(C2C3=C(CCCC3=O)NC3=C2C(=O)c2ccccc23)cc1OCC (stereo not drawn) [compound 30] | 2.2 fold | 3.8 µM | 
COc1cccc(C2C3=C(CCCC3=O)NC3=C2C(=O)c2ccccc23)c1 (stereo not drawn) [compound 28] | 1.9 fold | 3.6 µM | 
O=C1CCCC2=C1C(c1cccnc1)C1=C(N2)c2ccccc2C1=O (stereo not drawn) [compound 37] | 2.8 fold | 5.4 µM | 
O=C1CCCC2=C1C(c1ccc(F)cc1)C1=C(N2)c2ccccc2C1=O (stereo not drawn) [compound 35] | 2.8 fold | 4.3 µM | 
CC(C)c1ccc(C2C3=C(CCCC3=O)NC3=C2C(=O)c2ccccc23)cc1 (stereo not drawn) [compound 29] | 5.3 fold | 1.2 µM | 
CC1CCN(c2cc(N3CCN(C(=O)c4cccs4)CC3)c([N+](=O)[O-])cc2F)CC1 [compound 12] | 3.9 fold | 0.4 µM and 0.7 µM | 
CCOC(=O)N1CCN(c2cc(N3CCCCC3C)c(F)cc2[N+](=O)[O-])CC1 (stereo not drawn) [compound 18] | 1.9 fold | 1 µM | 
CCC(=O)N1CCN(c2cc(N3CCC(C)CC3)c(F)cc2[N+](=O)[O-])CC1 [compound 8] | 3.3 fold | 0.7 µM and 0.4 µM | 
Cc1ccc(S(=O)(=O)N2CCN(c3cc(N4CCCCC4)c(F)cc3[N+](=O)[O-])CC2)cc1 [compound 15] | 2.6 fold | 1.7 µM | 
Cc1ccc(S(=O)(=O)N2CCN(c3cc(N4CCC(C)CC4)c(F)cc3[N+](=O)[O-])CC2)cc1 [compound 14] | 3 fold | 1.1 µM | 
CC1CCCCN1c1cc(N2CCN(C(=O)C(C)(C)C)CC2)c([N+](=O)[O-])cc1F (stereo not drawn) [compound 17] | 2.0 fold | 3 µM | 
O=C(N/N=C/c1cc(Cl)ccc1O)c1ccncc1 [compound 57] |  |  | Human GPR174 CRE Activity: nature of the compound (IA, antagonist, NM) (GPR174): GPR174 antagonists or allosteric modulators; also recorded: Antagonist or allosteric modulator
Cc1nnc(-c2ccc(C3C4=C(CCCC4=O)NC4=C3C(=O)c3ccccc34)cc2)o1 (stereo not drawn) [compound 34] | 8.4 fold | 2.8 µM | 
ADA: adenosine deaminase, an enzyme that catabolizes adenosine into inosine (protein, UniProt P00813 2-363, looked up) Adenosine deaminase: AQTPAFDKPKVELHVHLDGSIKPETILYYGRRRGIALPANTAEGLLNVIGMDKPLTLPDFLAKFDYYMPAIAGCREAIKRIAYEFVEMKAKEGVVYVEVRYSPHLLANSKVEPIPWNQAEGDLTPDEVVALVGQGLQEGERDFGVKARSILCCMRHQPNWSPKVVELCKKYQQQTVVAIDLAGDETIPGSSLLPGHVQAYQEAVKSGIHRTVHAGEVGSAEVVKEAVDILKTERLGHGYHTLEDQALYNRLRQENMHFEICPWSSYLTGAWKPDTEHAVIRLKNDQANYSLNTDDPLIFKSTLDTDYQMTKRDMGFTEEEFKRLNINAAKSSFLPEDEKRELLDLLYKAYGMPPSASAGQNL |  |  | IFN-γ, MRS/Veh: ratio in the presence vs. the absence of MRS-1754 (human PBMCs; donor 3): 0.7*; IL-2, MRS/Veh: ratio in the presence vs. the absence of MRS-1754 (human PBMCs; donor 3): 0.9; TNF, MRS/Veh: ratio in the presence vs. the absence of MRS-1754 (human PBMCs; donor 3): 0.9; IFN-γ, ratio relative to vehicle control (Veh column) (human PBMCs; donor 3, no MRS): 1.7* fold; IL-2, ratio relative to vehicle control (Veh column) (human PBMCs; donor 3, no MRS): 2.2* fold; TNF, ratio relative to vehicle control (Veh column) (human PBMCs; donor 3, no MRS): 2.2* fold; IFN-γ, ratio relative to vehicle control (MRS) (human PBMCs; donor 3): 1.1 fold; IL-2, ratio relative to vehicle control (MRS column) (human PBMCs; donor 3): 1.9* fold; TNF, ratio relative to vehicle control (MRS column) (human PBMCs; donor 3): 1.9* fold; IFN-γ, MRS/Veh: ratio in the presence vs. the absence of MRS-1754 (human PBMCs; donor 6): 1.3; IL-2, MRS/Veh: ratio in the presence vs. the absence of MRS-1754 (human PBMCs; donor 6): 1.0; TNF, MRS/Veh: ratio in the presence vs. the absence of MRS-1754 (human PBMCs; donor 6): 1.2*; IFN-γ, ratio relative to vehicle control (Veh column) (human PBMCs; donor 6, no MRS): 1.2 fold; IL-2, ratio relative to vehicle control (Veh column) (human PBMCs; donor 6, no MRS): 1.3* fold; TNF, ratio relative to vehicle control (Veh column) (human PBMCs; donor 6, no MRS): 1.2* fold; IFN-γ, ratio relative to vehicle control (MRS) (human PBMCs; donor 6): 1.5* fold; IL-2, ratio relative to vehicle control (MRS column) (human PBMCs; donor 6): 1.3* fold; TNF, ratio relative to vehicle control (MRS column) (human PBMCs; donor 6): 1.4* fold
